ChEMBL document CHEMBL1144625, “A new platinum complex of triazine demonstrates G1 arrest with novel biological profile in human breast cancer cell line, MDA-MB-468” (Bioorg Med Chem Lett, 2007)

Each compound was assayed on MDA-MB-468 (assay: Antiproliferative activity against MDA-MB-468 cells by MTT assay). Details: Homo sapiens.
Type: functional, cell-based

| IC50 | Structure (SMILES) |
| --- | --- |
| > 100 µM | c1ccc(Sc2nc(N3CCSCC3)nc(N3CCSCC3)n2)nc1 |
| > 100 µM | c1ccc(Sc2nc(N3CCOCC3)nc(N3CCOCC3)n2)nc1 |

| Structure (SMILES) | IC50 |
| --- | --- |
| c1ccc(Sc2nc(N3CC3)nc(N3CC3)n2)nc1 | > 100 µM |
